Experimental data from US20120225031A1, “SPHINGOSINE-1-PHOSPHATE RECEPTOR AGONISTS IN THE TREATMENT OF DEMYELINATING DISORDERS” (priority 2002, published 2012).

Assays:
[1] = Acute toxicity (LD50) in monkeys; settings: monkey, in vivo, po
[2] = tested on: DA rat model of chronic-protracted EAE; assay: Optic neuritis in the DA rat model of chronic-protracted EAE; assay type: in vivo; settings: for disease progression (clinical EAE): 0.3 mg/kg p.o. once a day for 2 weeks, therapeutic treatment from about day 12, compared to vehicle-treated controls; for development of EAE symptoms / disease-related weight loss: suboptimal dose <0.1 mg/kg p.o. combined with a mTOR inhibitor (<1 mg/kg p.o.), therapeutic dosing
Description: A.2 In Vivo: Optic Neuritis in the DA Rat Model of Chronic-Protracted EAE
Ocular pathologic manifestations such as optic neuritis (neuromyelitis optica) are frequent in multiple sclerosis and often precede or accompany plaque formation in the brain white matter. Ocular areas, especially the optic chiasma, also are important targets in demyelinating forms of EAE. In such EAE models, functional disability caused by demyelination of the optic nerve can be assessed by electrophysiological methods, such as visual evoked cortical potentials and electroretinogram, in conjunction with morphological analysis of the ocular tissue.
Immunization: On day 0, female DA rats are immunized by a single intradermal injection at the tail base with 100-200 μl inoculum containing a recombinant encephalitogenic peptide, e.g. myelin oligodendrocyte glycoprotein, or a homogenate of syngeneic central nervous system tissue emulsified in one part CFA (volume:volume). Neurologic symptoms develop by 10 days post-immunization, and clinical grades of EAE are assessed using a scale of 0 to 4. Therapeutic treatment with the test compound starts when the disease is fully established, usually on day 12, and continues for 2 weeks.

[3] = tested on: Lewis rat model of EAE; assay: Lewis rat model of EAE, prophylactic treatment regimen; assay type: in vivo; settings: combination with a mTOR inhibiter at similar doses, EAE induced by intradermal guinea pig neuroantigen
[4] = tested on: SJL/J mouse model of chronic progressive EAE; assay: SJL/J mouse model of chronic progressive EAE; assay type: in vivo
Procedure: A.1 In Vivo: SJL/J Mouse Model of Chronic Progressive EAE
The disease course in this animal model shares some common features with SP- and PR-MS. Immunization: On day 0 female SJL/J mice are immunized (subcutaneous flank injection) with 200 μl inoculum containing 500 μg bovine myelin basic protein (MBP) emulsified in complete Freund's adjuvant (CFA). On day 9 mice are boosted by a second MBP injection and an additional intravenous adjuvant injection consisting of 200 ng B. pertussis toxin. A final Pertussis injection is given on day 11. […] This is followed by a recovery phase starting around day 25, during which time mice remain symptom-free for about 20 days. Subsequently, by days 45-47, approximately 50% of the animals go into the progressive phase of the disease. Therefore, therapeutic treatment with test compounds starts on day 21 when the disease is fully established and continues until day 70, unless stated otherwise. Recombinant mouse interferon β (INFβ Calbiochem/Biosciences) is dissolved in saline and given by intraperitoneal injection 3× per week. Compound (a), e.g. Compound A or B, is diluted in water and given p.o. 5× per week by gavage. Mice in the vehicle control group are MBP-immunized and treated with water.
Each experimental group consists of 10 mice, which are examined daily for clinical EAE symptoms. Disease incidence and the day of EAE onset also are recorded. Clinical grades of EAE are assessed using a scale from 0 to 3. Any disease-related mortality which occurs after starting drug treatment is recorded with a maximum score of 3.

[5] = Acute toxicity (LD50) in rats; settings: rat, in vivo, po
[6] = 0.6 mg/kg p.o. 5x per week in combination with INFβ (10 000 IU i.p. 3x per week), therapeutic treatment from day 21, days 45-75, compared to vehicle-treated controls

Row | Molecule | LD50 [1] [mg/kg] | disease progression (clinical EAE) [2] | development of EAE symptoms [2] | disease-related weight loss [2] | disease onset [3] | disease progression (clinical EAE) [4, 6] | LD50 [5] [mg/kg] | disease progression (clinical EAE) ([4]; INFβ alone, 10 000 IU 3x/week i.p., afterwards full EAE response indistinguishable from vehicle-treated controls by day 68 onwards)
1 | CCCCCCCCc1ccc(CCC(N)(CO)CO)cc1.Cl [Compound A, 2-amino-2-[2-(4-octylphenyl)ethyl]propane-1,3-diol] | > 10 | prevents disease progression for at least 2 months | curtail development of EAE symptoms | prevent disease-related weight loss | prevent disease onset | prevents disease progression for one month | > 10 | 
2 | NC(CO)(CO)CCc1ccc(C(=O)CCCCc2ccccc2)cc1 [Compound B, 2-amino-2-{2-[4-(1-oxo-5-phenylpentyl)phenyl]ethyl}propane-1,3-diol] |  | prevents disease progression for at least 2 months | curtail development of EAE symptoms | prevent disease-related weight loss | prevent disease onset | prevents disease progression for one month |  | 
3 | INFβ: Recombinant mouse interferon β (Calbiochem/Biosciences), dissolved in saline, given by intraperitoneal injection (protein, UniProt P01575 22-182, looked up) Interferon beta: INYKQLQLQERTNIRKCQELLEQLNGKINLTYRADFKIPMEMTEKMQKSYTAFAIQEMLQNVFLVFRNNFSSTGWNETIVVRLLDELHQQTVFLKTVLEEKQEERLTWEMSSTALHLKSYYWRVQRYLKLMKYNSYAWMVVRAEIFRNFLIIRRLTRNFQN |  |  |  |  |  |  |  | only marginally inhibits disease progression for about 1 week
